Target: Bile salt export pump (Homo sapiens, UniProt O95342)
Format: ADME

SMILES	IC50 [µM]
CSCCNc1nc(SCCC(F)(F)F)nc2c1ncn2[C@@H]1O[C@H](COP(=O)(O)OP(=O)(O)C(Cl)(Cl)P(=O)(O)O)[C@@H](O)[C@H]1O [CANGRELOR]	> 1000
COc1cc(C(=O)NCCCCCC(=O)O)cc(OC)c1OC [CAPOBENIC ACID]	> 1000
COc1cc(CNC(=O)CCCC/C=C/C(C)C)ccc1O [CAPSAICIN]	< 10
COC(=O)N/N=C/c1c[n+]([O-])c2ccccc2[n+]1[O-] [CARBADOX]	> 940
C[N+](C)(C)CCOC(N)=O [CARBAMOYLCHOLINE]	> 1000
C[C@@](Cc1ccc(O)c(O)c1)(NN)C(=O)O [CARBIDOPA ANHYDROUS]	> 1000
CCOC(=O)n1ccn(C)c1=S [CARBIMAZOLE]	> 1000
CN(C)CCOC(c1ccc(Cl)cc1)c1ccccn1 (centres undefined) [CARBINOXAMINE]	> 1000
O=NN(CCCl)C(=O)NCCCl [CARMUSTINE]	97.2
C[N+](C)(C)CC(O)CC(=O)[O-] (centres undefined) [CARNITINE]	> 1000
CC(C)(C)NCC(O)COc1cccc2c1CCC(=O)N2 (centres undefined) [CARTEOLOL]	> 1000
C=CC1=C(C(=O)O)N2C(=O)[C@@H](NC(=O)/C(=N\OCC(=O)O)c3csc(N)n3)[C@H]2SC1 [CEFIXIME]	> 1000
CCN(CC)CCOC(=O)c1ccc(N)cc1Cl [CHLOROPROCAINE]	> 1000
Cc1cc(O)cc(C)c1Cl [CHLOROXYLENOL]	130
CN(C)CCCN1c2ccccc2Sc2ccc(Cl)cc21 [CHLORPROMAZINE]	91
CN(C)CC/C=C1/c2ccccc2Sc2ccc(Cl)cc21 [CHLORPROTHIXENE]	27.5
O=C(O)c1cc(-c2ccccc2)nc2ccccc12 [CINCHOPHEN]	> 814
CCCC(=O)OCOC(=O)C1=C(C)NC(C)=C(C(=O)OC)C1c1cccc(Cl)c1Cl (centres undefined) [CLEVIDIPINE]	36.4
CCN(CC)CCOc1ccc(C(=C(Cl)c2ccccc2)c2ccccc2)cc1 [CLOMIPHENE]	< 10
Cc1onc(-c2ccccc2Cl)c1C(=O)N[C@@H]1C(=O)N2[C@@H]1SC(C)(C)[C@@H]2C(=O)O [CLOXACILLIN]	41.6
Oc1ccc(Cl)c2cccnc12 [CLOXYQUIN]	357
CN1CCN(C2=Nc3cc(Cl)ccc3Nc3ccccc32)CC1 [CLOZAPINE]	75.1
C[C@]12CCC(=O)C=C1CC[C@@H]1[C@@H]2C(=O)C[C@@]2(C)[C@H]1CC[C@]2(O)C(=O)CO [CORTISONE]	108
O=c1ccc2ccccc2o1 [COUMARIN]	> 1000

SMILES	IC50 [µM]
O=C(NO)C1(CS(=O)(=O)c2ccc(Oc3ccc(Cl)cc3)cc2)CCOCC1 [CTS-1027]	23.4
CC1CC(OC(=O)C(O)c2ccccc2)CC(C)(C)C1 (centres undefined) [CYCLANDELATE]	15
CN(C)CCC=C1c2ccccc2C=Cc2ccccc21 [CYCLOBENZAPRINE]	107
NCCS [CYSTEAMINE]	331
CN(C)/N=N/c1[nH]cnc1C(N)=O [DACARBAZINE]	> 1000
C#C[C@]1(O)CC[C@H]2[C@@H]3CCC4=Cc5oncc5C[C@]4(C)[C@H]3CC[C@@]21C [DANAZOL]	< 10
O=C1CN(/N=C/c2ccc(-c3ccc([N+](=O)[O-])cc3)o2)C(O)=N1 [DANTROLENE]	145
Cc1nc(Nc2ncc(C(=O)Nc3c(C)cccc3Cl)s2)cc(N2CCN(CCO)CC2)n1 [DASATINIB]	< 10
O=C(O)c1ccc(OCCn2ccnc2)cc1 [DAZOXIBEN]	> 1000
N=C(N)N1CCc2ccccc2C1 [DEBRISOQUIN]	> 952
COc1ccc(-c2cc(C(F)F)nn2-c2ccc(S(N)(=O)=O)cc2)cc1F [DERACOXIB]	20.2
CNCCCN1c2ccccc2CCc2ccccc21 [DESIPRAMINE]	150
C[C@@H]1C[C@H]2[C@@H]3CCC4=CC(=O)C=C[C@]4(C)[C@@]3(F)[C@@H](O)C[C@]2(C)[C@H]1C(=O)CO [DESOXIMETASONE]	16.4
C[C@]12CC[C@H]3[C@@H](CCC4=CC(=O)CC[C@@]43C)[C@@H]1CC[C@@H]2C(=O)CO [DESOXYCORTICOSTERONE]	17.1
CN1C(=O)[C@@H](NC(=O)c2cc3ccccc3[nH]2)N=C(c2ccccc2)c2ccccc21 [DEVAZEPIDE]	< 10
C[C@@H]1C[C@H]2[C@@H]3CCC4=CC(=O)C=C[C@]4(C)[C@@]3(F)[C@@H](O)C[C@]2(C)[C@@]1(O)C(=O)CO [DEXAMETHASONE]	102
CC(C)(CO)[C@@H](O)C(=O)NCCCO [DEXPANTHENOL]	> 1000
CC1=NS(=O)(=O)c2cc(Cl)ccc2N1 [DIAZOXIDE]	> 1000
c1ccc2c(c1)sc1ccccc12 [DIBENZOTHIOPHENE]	388
CCCCOc1cc(C(=O)NCCN(CC)CC)c2ccccc2n1 [DIBUCAINE]	41.7
NS(=O)(=O)c1cc(Cl)c(Cl)c(S(N)(=O)=O)c1 [DICHLORPHENAMIDE]	> 919
O=C(O)Cc1ccccc1Nc1c(Cl)cccc1Cl [DICLOFENAC]	65
Cc1onc(-c2c(Cl)cccc2Cl)c1C(=O)N[C@@H]1C(=O)N2[C@@H]1SC(C)(C)[C@@H]2C(=O)O [DICLOXACILLIN]	< 10
O=c1oc2ccccc2c(O)c1Cc1c(O)c2ccccc2oc1=O [DICUMAROL]	39.9

SMILES	IC50 [µM]
O=C1c2ccccc2CN2C(=O)c3ccccc3CN12 [DIFTALONE]	> 1000
C[C@H]1O[C@@H](O[C@H]2[C@@H](O)C[C@H](O[C@H]3[C@@H](O)C[C@H](O[C@H]4CC[C@@]5(C)[C@H](CC[C@@H]6[C@@H]5CC[C@]5(C)[C@@H](C7=CC(=O)OC7)CC[C@]65O)C4)O[C@@H]3C)O[C@@H]2C)C[C@H](O)[C@@H]1O [DIGITOXIN]	< 10
CC1(C)OC(=O)NC1=O [DIMETHADIONE]	> 1000
CCCCc1cc2ccccc2c(OCCN(C)C)n1 [DIMETHISOQUIN]	68.7
CCCCC[C@H](O)/C=C/[C@H]1[C@H](O)CC(=O)[C@@H]1C/C=C\CCCC(=O)O [DINOPROSTONE]	> 1000
CCN(CC)C(=S)S [DITIOCARB]	69.3
CC(CCc1ccc(O)cc1)NCCc1ccc(O)c(O)c1 (centres undefined) [DOBUTAMINE]	> 1000
CCCCCCCCCCCCCCCCCCCCCCO [DOCOSANOL]	> 1000
CN(CCOc1ccc(NS(C)(=O)=O)cc1)CCc1ccc(NS(C)(=O)=O)cc1 [DOFETILIDE]	708
COc1cc2c(cc1OC)C(=O)C(CC1CCN(Cc3ccccc3)CC1)C2 (centres undefined) [DONEPEZIL]	146
Oc1ccc(CCNCCCCCCNCCc2ccccc2)cc1O [DOPEXAMINE]	> 1000
CN(C)CCOC(C)(c1ccccc1)c1ccccn1 (centres undefined) [DOXYLAMINE]	> 1000
O=C(CCCN1CC=C(n2c(=O)[nH]c3ccccc32)CC1)c1ccc(F)cc1 [DROPERIDOL]	< 10
CCCCOc1ccc(C(=O)CCN2CCCCC2)cc1 [DYCLONINE]	275
Cn1c(=O)c2c(ncn2CC(O)CO)n(C)c1=O (centres undefined) [DYPHYLLINE]	> 1000
O=c1c2ccccc2[se]n1-c1ccccc1 [EBSELEN]	< 10
Clc1ccc(COC(Cn2ccnc2)c2ccc(Cl)cc2Cl)cc1 (centres undefined) [ECONAZOLE]	< 10
CCCn1c(=O)[nH]c(=O)c2[nH]cnc21 [ENPROFYLLINE]	> 1000
CCN1CCN(c2cc3c(cc2F)c(=O)c(C(=O)O)cn3C2CC2)CC1 [ENROFLOXACIN]	> 1000
N#Cc1ccccc1OCC(O)CNCCNC(=O)Cc1ccc(O)cc1 (centres undefined) [EPANOLOL]	244
C#Cc1cccc(Nc2ncnc3cc(OCCOC)c(OCCOC)cc23)c1 [ERLOTINIB]	< 10
C[C@]12CC[C@@H]3c4ccc(O)cc4CC[C@H]3[C@@H]1C[C@@H](O)[C@@H]2O [ESTRIOL]	> 1000
C[C@]12CC[C@@H]3c4ccc(O)cc4CC[C@H]3[C@@H]1CCC2=O [ESTRONE]	> 1000
CCOc1ccc2nc3cc(N)ccc3c(N)c2c1 [ETHACRIDINE]	43.5

SMILES	IC50 [µM]
C#C[C@]1(O)CC[C@H]2[C@@H]3CCc4cc(O)ccc4[C@H]3CC[C@@]21C [ETHINYL ESTRADIOL]	< 10
CCc1cc(C(N)=S)ccn1 [ETHIONAMIDE]	> 1000
CCN(CC)C(C)CN1c2ccccc2Sc2ccccc21 (centres undefined) [ETHOPROPAZINE]	139
CCC1(C)CC(=O)NC1=O (centres undefined) [ETHOSUXIMIDE]	> 1000
CCN1C(=O)NC(c2ccccc2)C1=O (centres undefined) [ETHOTOIN]	> 792
CC(O)(P(=O)(O)O)P(=O)(O)O [ETIDRONIC ACID]	> 1000
CCOC(=O)c1cncn1[C@H](C)c1ccccc1 [ETOMIDATE]	61.6
O=C(O)Cc1ccccc1Oc1ccc(Cl)cc1Cl [FENCLOFENAC]	236
CN1CC(=O)N=C1NC(=O)Nc1cccc(Cl)c1 [FENOBAM ANHYDROUS]	> 1000
Oc1ccc(C2CNCCc3c2cc(O)c(O)c3Cl)cc1 (centres undefined) [FENOLDOPAM]	> 1000
O=C(NCC1CCCCN1)c1cc(OCC(F)(F)F)ccc1OCC(F)(F)F (centres undefined) [FLECAINIDE]	218
Cc1onc(-c2c(F)cccc2Cl)c1C(=O)N[C@@H]1C(=O)N2[C@@H]1SC(C)(C)[C@@H]2C(=O)O [FLOXACILLIN]	< 10
CCOC(=O)c1ncn2c1CN(C)C(=O)c1cc(F)ccc1-2 [FLUMAZENIL]	> 733
C[C@@H]1C[C@H]2[C@@H]3C[C@H](F)C4=CC(=O)C=C[C@]4(C)[C@@]3(F)[C@@H](O)C[C@]2(C)[C@@]1(O)C(=O)CO [FLUMETHASONE]	68.5
Fc1ccc(C(c2ccc(F)cc2)N2CCN(C/C=C/c3ccccc3)CC2)cc1 [FLUNARIZINE]	< 10
CC(=O)[C@@]1(O)CC[C@H]2[C@@H]3C[C@H](C)C4=CC(=O)C=C[C@]4(C)[C@@]3(F)[C@@H](O)C[C@@]21C [FLUOROMETHOLONE]	101
O=c1[nH]cc(F)c(=O)[nH]1 [FLUOROURACIL]	> 1000
OCCN1CCN(CCCN2c3ccccc3Sc3ccc(C(F)(F)F)cc32)CC1 [FLUPHENAZINE]	25.8
CC1(C)O[C@@H]2C[C@H]3[C@@H]4C[C@H](F)C5=CC(=O)CC[C@]5(C)[C@H]4[C@@H](O)C[C@]3(C)[C@]2(C(=O)CO)O1 [FLURANDRENOLIDE]	71.2
CC(C(=O)O)c1ccc(-c2ccccc2)c(F)c1 (centres undefined) [FLURBIPROFEN]	725
CC(C)C(=O)Nc1ccc([N+](=O)[O-])c(C(F)(F)F)c1 [FLUTAMIDE]	60.8
CCCc1c(OCC(O)COc2ccc3c(=O)cc(C(=O)O)oc3c2CCC)ccc(C(C)=O)c1O (centres undefined) [FPL-55712]	< 10

— ChEMBL document CHEMBL4017441, “Mitigating the inhibition of human bile salt export pump by drugs: opportunities provided by physicochemical property modulation, in silico modeling, and structural modification” (Drug Metab Dispos, 2012)
